ChEMBL document CHEMBL3044551, “Synthesis of optically active N-(2-pyridyloxiran-2-ylmethyl) benzenesulfonamide derivatives and their herbicidal activity” (Biosci Biotechnol Biochem, 2001)
Converted amounts (≈) assume the structure as drawn. The source made the active and inactive calls. No cut-off for these calls is given here.

What was measured:
Oryza sativa [1] = assay: Toxicity in two-leaf stage Oryza sativa (rice) plants exposed to compound 3 days post transplantation assessed as phytotoxicity scores at 0.5 kg ai/ha measured 2 weeks post compound treatment; assay type: organism-based; settings: in vivo, 336 h
Oryza sativa [2] = assay: Toxicity in direct seeded Oryza sativa (rice) plants assessed as phytotoxicity scores at 0.5 kg ai/ha measured 2 weeks post compound treatment; assay type: organism-based; settings: in vivo, 336 h
Cyperus serotinus = assay: Herbicidal activity against Cyperus serotinus exposed to compound at 1.5 to 2 leaf stage assessed as herbicidal rate scores at 0.5 kg ai/ha measured 2 weeks post compound treatment by pot test; assay type: functional
[3] = test system: Schoenoplectiella juncoides; assay: Herbicidal activity against Schoenoplectiella juncoides exposed to compound at 1.5 to two-leaf stage assessed as herbicidal rate scores at 0.5 kg ai/ha measured 2 weeks post compound treatment by pot test; assay type: functional
Rotala indica = assay: Herbicidal activity against Rotala indica exposed to compound at 1.5 to 2 leaf stage assessed as herbicidal rate scores at 0.5 kg ai/ha measured 2 weeks post compound treatment by pot test; assay type: functional
Echinochloa oryzicola [4] = assay: Herbicidal activity against Echinochloa oryzicola exposed to compound at 1.5 to two-leaf stage assessed as herbicidal rate scores at 0.5 kg ai/ha measured 2 weeks post compound treatment by pot test; assay type: functional
Echinochloa oryzicola [5] = assay: Herbicidal activity against germinated Echinochloa oryzicola assessed as inhibition of above-ground shoot length growth after 7 days post compound treatment by petri dish test; assay type: functional; settings: for EC50: 168 h, read-out: ED50 (the source's name)

| Compound | Activity (Oryza sativa [1]) | Activity (Oryza sativa [2]) | Activity (Cyperus serotinus) | Activity [3] | Activity (Rotala indica) | Activity (Echinochloa oryzicola [4]) | ED50 (Echinochloa oryzicola [5]) | EC50 (Echinochloa oryzicola [5]) [µg/mL] |
| --- | --- | --- | --- | --- | --- | --- | --- | --- |
| CN(C[C@@]1(c2cccc(Cl)n2)CO1)S(=O)(=O)c1ccc2c(c1)CCCC2 | 0 | 0 | 0 | 0 | 0 | 0 | inactive |  |
| Cc1cc(S(=O)(=O)N(C)C[C@]2(c3cccc(Cl)n3)CO2)ccc1Cl | 1 | 10 | 10 | 7 | 10 | 10 |  | 0.035 (≈ 0.0904 µM) |
| Cc1cc(S(=O)(=O)N(C)CC2(c3cccc(Cl)n3)CO2)ccc1Cl (racemic) | 0 | 10 | 9 | 4 | 9 | 10 |  | 0.07 (≈ 0.181 µM) |
| CN(C[C@]1(c2cccc(Cl)n2)CO1)S(=O)(=O)c1ccc2c(c1)CCCC2 | 0 | 1 | 9 | 3 | 10 | 9 |  | 0.05 (≈ 0.127 µM) |
| Cc1cc(S(=O)(=O)N(C)C[C@@]2(c3cccc(Cl)n3)CO2)ccc1Cl | 0 | 0 | 2 | 0 | 2 | 1 | inactive |  |
| CN(CC1(c2cccc(Cl)n2)CO1)S(=O)(=O)c1ccc2c(c1)CCCC2 (racemic) | 0 | 0 | 8 | 2 | 10 | 8 |  | 0.11 (≈ 0.28 µM) |
